Each molecule was assayed on panel of 290 distinct kinases (321 in the larger panel), excluding mutant variants. Conditions: asterisk: panel of 321 distinct kinases.
In the case of `COCCOc1cc2ncnc(Oc3cccc(NC(=O)Nc4cc(C(C)(CF)CF)on4)c3)c2cc1OC` [Ex 213, 1-[5-(1,3-difluoro-2-methylpropan-2-yl)isoxazol-3-yl]-3-{3-[6-methoxy-7-(2-methoxyethoxy)quinazolin-4-yloxy]phenyl}urea], the S35 is reported as “D* (D > 0.40)”. In the case of `COCCOc1cc2ncnc(Oc3cccc(NC(=O)Nc4ccc(C(F)(F)F)c(OC)c4)c3)c2cc1OC` [Ex 223, 1-(3-methoxy-4-(trifluoromethyl)phenyl)-3-(3-(6-methoxy-7-(2-methoxyethoxy)quinazolin-4-yloxy)phenyl)urea], the S35 is reported as “C* (0.20 < C ≦ 0.40)”. For `COCCOc1cc2ncnc(Sc3cccc(NC(=O)Nc4cc(C(C)(C)C)nn4-c4ccccc4)c3)c2cc1OC` [Ex 236, 1-(3-tert-butyl-1-phenyl-1H-pyrazol-5-yl)-3-(3-(6-methoxy-7-(2-methoxyethoxy)quinazolin-4-ylthio)phenyl)urea], the S35 was “D* (D > 0.40)”. In the case of `COCCOc1cc2ncnc(Sc3cccc(NC(=O)Nc4cc(C(F)(F)F)nn4-c4ccc(C)cc4)c3)c2cc1OC` [Ex 243, 1-{3-[6-methoxy-7-(2-methoxyethoxy)quinazolin-4-ylthio]phenyl}-3-[1-p-tolyl-3-(trifluoromethyl)-1H-pyrazol-5-yl]urea], the S35 is reported as “C* (0.20 < C ≦ 0.40)”. In the case of `COCCOc1cc2ncnc(Oc3cccc(NC(=O)Nc4cc(C(C)(CF)CF)nn4-c4ccccc4)c3)c2cc1OC` [Ex 228, 1-[3-(1,3-difluoro-2-methylpropan-2-yl)-1-phenyl-1H-pyrazol-5-yl]-3-{3-[6-methoxy-7-(2-methoxyethoxy)quinazolin-4-yloxy]phenyl}urea], the S35 is reported as “D* (D > 0.40)”. `COCCOc1cc2ncnc(Oc3cccc(NC(=O)Nc4cc(C(C)C)no4)c3)c2cc1OC` [Ex 215, 1-(3-isopropylisoxazol-5-yl)-3-(3-(6-methoxy-7-(2-methoxyethoxy)quinazolin-4-yloxy)phenyl)urea] was tested, and the S35 was “C* (0.20 < C ≦ 0.40)”. With `COCCOc1cc2ncnc(Sc3cccc(NC(=O)Nc4cc(C(C)(CF)CF)on4)c3)c2cc1OC` [Ex 230, 1-[5-(1,3-difluoro-2-methylpropan-2-yl)isoxazol-3-yl]-3-{3-[6-methoxy-7-(2-methoxyethoxy)quinazolin-4-ylthio]phenyl}urea] the S35 was “C* (0.20 < C ≦ 0.40)”. `COCCOc1cc2ncnc(Oc3cccc(NC(=O)Nc4cc(C5CCCC5)on4)c3)c2cc1OC` [Ex 219, 1-(5-cyclopentylisoxazol-3-yl)-3-(3-(6-methoxy-7-(2-methoxyethoxy)quinazolin-4-yloxy)phenyl)urea] was tested, and the S35 was “C* (0.20 < C ≦ 0.40)”. With `COCCOc1cc2ncnc(Sc3cccc(NC(=O)Nc4cc(C(F)(F)F)n(-c5ccccc5)n4)c3)c2cc1OC` [Ex 244, 1-{3-[6-methoxy-7-(2-methoxyethoxy)quinazolin-4-ylthio]phenyl}-3-[1-phenyl-5-(trifluoromethyl)-1H-pyrazol-3-yl]urea] the S35 was “C* (0.20 < C ≦ 0.40)”. `COCCOc1cc2ncnc(Oc3cccc(NC(=O)Nc4cc(C(C)(C)C)nn4-c4ccccc4)c3)c2cc1OC` [Ex 210, 1-(3-tert-butyl-1-phenyl-1H-pyrazol-5-yl)-3-(3-(6-methoxy-7-(2-methoxyethoxy)quinazolin-4-yloxy)phenyl)urea] was tested, and the S35 was “D* (D > 0.40)”. In the case of `COCCOc1cc2ncnc(Oc3cccc(NC(=O)Nc4cc(C(F)(F)F)nn4-c4ccccc4)c3)c2cc1OC` [Ex 221, 1-{3-[6-methoxy-7-(2-methoxyethoxy)quinazolin-4-yloxy]phenyl}-3-[1-phenyl-3-(trifluoromethyl)-1H-pyrazol-5-yl]urea], the S35 is reported as “C* (0.20 < C ≦ 0.40)”.

Same assay, conditions: kinase selectivity score, 290 distinct kinases; class symbols
With `COCCOc1cc2ncnc(Oc3cccc(NC(=O)Nc4cc(-c5ccccc5)on4)c3)c2cc1OC` [Ex 203, 1-(3-(6-methoxy-7-(2-methoxyethoxy)quinazolin-4-yloxy)phenyl)-3-(5-phenylisoxazol-3-yl)urea] the S35 was “B (0.10 < B ≦ 0.20)”. In the case of `COc1cc(NC(=O)Nc2cccc(Oc3ncnc4cc(OC)c(OC)cc34)c2)cc(C(F)(F)F)c1` [Ex 116, 1-(3-(6,7-dimethoxyquinazolin-4-yloxy)phenyl)-3-(3-methoxy-5-(trifluoromethyl)phenyl)urea], the S35 is reported as “B (0.10 < B ≦ 0.20)”.

Same assay, conditions: kinase selectivity score, value marked * (larger kinase panel); class symbols
With `COc1cc2ncnc(Oc3cccc(NC(=O)Nc4cc(C(C)(CF)CF)no4)c3)c2cc1OC` [Ex 159, 1-[3-(1,3-difluoro-2-methylpropan-2-yl)isoxazol-5-yl]-3-[3-(6,7-dimethoxyquinazolin-4-yloxy]phenyl)urea] the S35 was “D* (D > 0.40)”.

Same assay, conditions: no asterisk: panel of 290 distinct kinases
For `CCOc1cc2ncnc(Sc3cccc(NC(=O)Nc4cc(C(C)(C)F)no4)c3)c2cc1OC` [Ex 389, 1-(3-(7-ethoxy-6-methoxyquinazolin-4-ylthio)phenyl)-3-(3-(2-fluoropropan-2-yl)isoxazol-5-yl)urea], the S35 was “C (0.20 < C ≦ 0.40)”. In the case of `COc1cc2ncnc(Oc3cc(NC(=O)Nc4cc(C(C)(C)F)no4)ccc3F)c2cc1OC` [Ex 293, 1-(3-(6,7-dimethoxyquinazolin-4-yloxy)-4-fluorophenyl)-3-(3-(2-fluoropropan-2-yl)isoxazol-5-yl)urea], the S35 is reported as “C (0.20 < C ≦ 0.40)”. For `COc1cc2ncnc(Oc3ccc(F)c(NC(=O)Nc4cc(C(C)(C)C)nn4-c4ccccc4)c3)c2cc1OC` [Ex 368, 1-(3-tert-butyl-1-phenyl-1H-pyrazol-5-yl)-3-(5-(6,7-dimethoxyquinazolin-4-yloxy)-2-fluorophenyl)urea], the S35 was “D (D > 0.40)”. In the case of `COc1cc2ncnc(Oc3cccc(NC(=O)Nc4cc(C(C)(C)C)nn4-c4ccc(C)cc4)c3C)c2cc1OC` [Ex 288, 1-(3-tert-butyl-1-p-tolyl-1H-pyrazol-5-yl)-3-(3-(6,7-dimethoxyquinazolin-4-yloxy)-2-methylphenyl)urea], the S35 is reported as “C (0.20 < C ≦ 0.40)”. In the case of `COc1cc2ncnc(Oc3cccc(NC(=O)Nc4cc(C(C)(C)C)nn4-c4cccc(C(F)(F)F)c4)c3)c2cc1OC` [Ex 379, 1-(3-tert-butyl-1-(3-(trifluoromethyl)phenyl)-1H-pyrazol-5-yl)-3-(3-(6,7-dimethoxyquinazolin-4-yloxy)phenyl)urea], the S35 is reported as “D (D > 0.40)”. For `COc1cc2ncnc(Oc3cccc(NC(=O)Nc4cc(C(C)(C)C)nn4-c4ccccc4C(F)(F)F)c3)c2cc1OC` [Ex 376, 1-(3-tert-butyl-1-(2-(trifluoromethyl)phenyl)-1H-pyrazol-5-yl)-3-(3-(6,7-dimethoxyquinazolin-4-yloxy)phenyl)urea], the S35 was “D (D > 0.40)”. For `COc1cc2ncnc(Oc3cccc(NC(=O)Nc4cc(C(C)(C)C)nn4-c4ccc(C)cc4C)c3)c2cc1OC` [Ex 282, 1-(3-tert-butyl-1-(2,4-dimethylphenyl)-1H-pyrazol-5-yl)-3-(3-(6,7-dimethoxyquinazolin-4-yloxy)phenyl)urea], the S35 was “C (0.20 < C ≦ 0.40)”. In the case of `COc1cc2ncnc(Sc3cccc(NC(=O)Nc4cc(C5(C(F)(F)F)CC5)on4)c3)c2cc1OC` [Ex 378, 1-(3-(6,7-dimethoxyquinazolin-4-ylthio)phenyl)-3-(5-(1-(trifluoromethyl)cyclopropyl)isoxazol-3-yl)urea], the S35 is reported as “C (0.20 < C ≦ 0.40)”. `COc1cc2ncnc(Sc3cccc(NC(=O)Nc4cc(C(C)(C)C)nn4-c4ccccc4C(F)(F)F)c3)c2cc1OC` [Ex 375, 1-(3-tert-butyl-1-(2-(trifluoromethyl)phenyl)-1H-pyrazol-5-yl)-3-(3-(6,7-dimethoxyquinazolin-4-ylthio)phenyl)urea] was tested, and the S35 was “C (0.20 < C ≦ 0.40)”. With `COc1cc2ncnc(Oc3cc(NC(=O)Nc4cc(C(C)(CF)CF)on4)ccc3F)c2cc1OC` [Ex 294, 1-(5-(1,3-difluoro-2-methylpropan-2-yl)isoxazol-3-yl)-3-(3-(6,7-dimethoxyquinazolin-4-yloxy)-4-fluorophenyl)urea] the S35 was “D (D > 0.40)”. With `COc1cc2c(Oc3cccc(NC(=O)Nc4cc(C(C)(C)F)no4)c3)ncnc2cc1O` [Ex 257, 1-(3-(2-fluoropropan-2-yl)isoxazol-5-yl)-3-(3-(7-hydroxy-6-methoxyquinazolin-4-yloxy)phenyl)urea] the S35 was “C (0.20 < C ≦ 0.40)”. `COCCOc1cc2ncnc(Sc3cccc(NC(=O)Nc4cc(C(C)(C)C)nn4-c4ccc(C)cc4)c3)c2cc1OC` [Ex 277, 1-(3-tert-butyl-1-p-tolyl-1H-pyrazol-5-yl)-3-(3-(6-methoxy-7-(2-methoxyethoxy)quinazolin-4-ylthio)phenyl)urea] was tested, and the S35 was “D (D > 0.40)”. In the case of `COc1cc2ncnc(Sc3cccc(NC(=O)Nc4cccc(C(C)(C)C#N)c4)c3)c2cc1OC` [Ex 279, 1-(3-(2-cyanopropan-2-yl)phenyl)-3-(3-(6,7-dimethoxyquinazolin-4-ylthio)phenyl)urea], the S35 is reported as “C (0.20 < C ≦ 0.40)”. For `COc1cc2ncnc(Oc3cccc(NC(=O)Nc4cc(C(C)(C)C)nn4-c4cnccc4C)c3)c2cc1OC` [Ex 303, 1-(3-tert-butyl-1-(4-methylpyridin-3-yl)-1H-pyrazol-5-yl)-3-(3-(6,7-dimethoxyquinazolin-4-yloxy)phenyl)urea], the S35 was “D (D > 0.40)”. For `COc1cc2ncnc(Sc3cccc(NC(=O)Nc4cc(C(C)(C)C)nn4-c4ccc(Cl)cc4)c3)c2cc1OC` [Ex 366, 1-(3-tert-butyl-1-(4-chlorophenyl)-1H-pyrazol-5-yl)-3-(3-(6,7-dimethoxyquinazolin-4-ylthio)phenyl)urea], the S35 was “D (D > 0.40)”. In the case of `COc1cc2ncnc(Sc3cccc(NC(=O)Nc4cc(C(C)(C)C#N)no4)c3)c2cc1OC` [Ex 381, 1-(3-(2-cyanopropan-2-yl)isoxazol-5-yl)-3-(3-(6,7-dimethoxyquinazolin-4-ylthio)phenyl)urea], the S35 is reported as “C (0.20 < C ≦ 0.40)”. For `COc1cc2ncnc(Oc3cc(NC(=O)Nc4cc(C(C)(C)C)on4)c(F)cc3F)c2cc1OC` [Ex 270, 1-(5-tert-butylisoxazol-3-yl)-3-(5-(6,7-dimethoxyquinazolin-4-yloxy)-2,4-difluorophenyl)urea], the S35 was “D (D > 0.40)”. `COc1cc2ncnc(Oc3cccc(NC(=O)Nc4cccc(C(C)(C)C#N)c4)c3)c2cc1OC` [Ex 278, 1-(3-(2-cyanopropan-2-yl)phenyl)-3-(3-(6,7-dimethoxyquinazolin-4-yloxy)phenyl)urea] was tested, and the S35 was “C (0.20 < C ≦ 0.40)”. In the case of `COc1cc2ncnc(Oc3cccc(NC(=O)Nc4cc(C(C)(C)C)nn4-c4cccc(C)c4)c3)c2cc1OC` [Ex 285, 1-(3-tert-butyl-1-m-tolyl-1H-pyrazol-5-yl)-3-(3-(6,7-dimethoxyquinazolin-4-yloxy)phenyl)urea], the S35 is reported as “D (D > 0.40)”.

Reference: patent US9730937B2, “RAF kinase modulator compounds and methods of use thereof” (AMBIT BIOSCIENCES CORPORATION, priority 2008, dated 2017)
